# Test results from PMC4805166, “Synthetic Cyclolipopeptides Selective against Microbial, Plant and Animal Cell Targets by Incorporation of D-Amino Acids or Histidine” (PLoS ONE, 2016).
# Where “and” joins values, the source holds several entries; their conditions need not be identical. Equal values may be shown once. Read-outs that look alike come from different tables or passages of the source. Where a SMILES comes first, the peptide text is derived from it. Side-chain parts run from the residue outwards. [ ]: non-standard residue; d: D form. The star is where a group is joined. Pentanoyl(4-Me) = CC(C)CCC(=O)*; Octanoyl = CCCCCCCC(=O)*; Hexanoyl = CCCCCC(=O)*
# Tests used:
# [1] = tested on: Erwinia amylovora PMV6076; experiment: MIC, in vitro growth inhibition; format: cell-based; conditions: TSB, 25°C, 48 h, OD 600 nm; tested at 3.1, 6.2, 12.5, 25, 50 μM; three replicates, experiment repeated twice; MIC = lowest concentration with no growth
# Procedure: (§1) The following plant pathogenic bacterial strains were used: Erwinia amylovora PMV6076 (Institut National de la Recherche Agronomique, Angers, France), Pseudomonas syringae pv. syringae EPS94 (Institut de Tecnologia Agroalimentària, Universitat de Girona, Spain) and Xanthomonas axonopodis pv. vesicatoria 2133–2 (Instituto Valenciano de Investigaciones Agrarias, Valencia, Spain). All bacteria were stored in Luria Bertani (LB) broth supplemented with glycerol (20%) and maintained at -80°C. Bacteria were scrapped from LB agar after growing for 24–48 h at 25°C. The cell material was suspended in sterile water to obtain a suspension of 10^8 CFU mL^-1.
# (§2) Lyophilized peptides were solubilized in sterile Milli-Q water to a final concentration of 1 mM and filter sterilized through a 0.22-μm pore filter. For minimum inhibitory concentration (MIC) assessment, dilutions of the compounds were made to obtain a stock concentration of […]. For antibacterial activity twenty microlitres of each dilution were mixed in a microtiter plate well with 20 μL of the corresponding suspension of the bacterial indicator, 160 μL of Trypticase Soy Broth (TSB) (BioMèrieux, France) to a total volume of 200 μL. For antifungal activity 20 μL of each stock solution were mixed in a microtiter plate well with 80 μL of the corresponding suspension of the fungal pathogen and 100 μL of double concentrated PDB to a total volume of 200 μL containing 0.003% w/v of choramphenicol.
# (§3) Three replicates for each strain, compound and concentration were used. Microbial growth was determined by optical density measurement at 600 nm (Bioscreen C, Labsystem, Helsinki, Finland). For antibacterial activity microplates were incubated at 25°C with 20 sec shaking before hourly absorbance measurement for 48 h. For antifungal activity microplates were incubated at 20°C with 1 min shaking before absorbance measurement that were done every two hours during seven days. The experiment was repeated twice. The MIC was taken as the lowest compound concentration with no growth at the end of the experiment.
# [2] = tested on: Pseudomonas syringae pv. syringae EPS94; format: cell-based; conditions: 48 h
# Procedure: as §1, §2, §3
# [3] = tested on: Xanthomonas axonopodis pv. vesicatoria 2133–2; format: cell-based; conditions: TSB, 25°C, 48 h, OD 600 nm; tested at 3.1, 6.2, 12.5, 25, 50 μM; three replicates, experiment repeated twice; MIC = lowest concentration with no growth
# Procedure: as §1, §2, §3
# [4] = tested on: Fusarium oxysporum f. sp. lycopersici FOL 3 race 2; experiment: MIC, antifungal growth inhibition; format: cell-based
# Procedure: Fusarium oxysporum f. sp. lycopersici FOL 3 race 2 (ATCC 201829, American Type Culture Collection) was used as fungal pathogen. The strain was cultured on potato dextrose agar (PDA) plates (Difco) and microconidia were obtained after growth at 25°C. The concentration of conidia was determined using a hemacytometer and adjusted to 10^4 conidia mL^-1.
# as §2, §3
# [5] = tested on: erythrocyte suspensions of horse blood; conditions: horse erythrocytes 5% vol/vol, TRIS buffer pH 7.2, 1 h at 37°C, absorbance 540 nm, relative to melittin 100 μM, ± confidence interval (α = 0.05); for Hemolysis (%) 150 µM: 150 µM peptide; for Hemolysis (%) 250 µM: 250 µM peptide;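 for all read-outs here: Read-out is hemoglobin release into the supernatant, with a buffer-only blank subtracted as the 0% baseline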
# Procedure: Blood was centrifuged at 6000g for 5 min, washed three times with TRIS buffer (10 mM TRIS, 150 mM NaCl, pH 7.2) and diluted.
# Compounds were solubilized in TRIS buffer and mixed with horse erythrocytes and the final concentrations tested were 250 and 150 μM. The mixture was incubated under continuous shaking for 1 h at 37°C. Then, the tubes were centrifuged at 3500g for 10 min, 80 μL aliquots of the supernatant transferred to 100-well microplates (Bioscreen), diluted with 80 μL water, and the absorbance measured at 540 nm (Bioscreen). Complete hemolysis was obtained by the addition of melittin at 100 μM (Sigma-Aldrich Corporation, Madrid, Spain). The percentage of hemolysis (H) was calculated using the equation: H = 100×[(Op−Ob)/(Om−Ob)], where Op was the density for a given compound concentration, Ob for the buffer, and Om for the melittin positive control.
# [6] = PDB with 0.003% chloramphenicol, 20°C, seven days, OD 600 nm, tested at 3.1, 6.2, 12.5, 25, 50 μM, three replicates, repeated twice
Structure (SMILES),MIC Ea [1] [µM],MIC Pss [2] [µM],MIC Xav [3],"MIC Fo [4, 6] [µM]",Hemolysis (%) 150 µM [5] [%],Hemolysis (%) 250 µM [5] [%],MIC Fo [4] [µM]
"CC(C)CCC(=O)NCCCC[C@@H]1NC(=O)[C@H](CCCCN)NC(=O)[C@H](CC(C)C)NC(=O)[C@H](CCCCN)NC(=O)[C@H](CCCCN)NC(=O)[C@H](CCC(N)=O)NC(=O)[C@H](CC(C)C)NC(=O)[C@H](CCCCN)NC(=O)[C@H](CCCCN)NC(=O)[C@@H](Cc2ccccc2)NC1=O [BPC626, c(KKLKK(CO-isoC5H11)fKKLQ)] (cyclo(KKLKK(Pentanoyl(4-Me))[dF]KKLQ))",25 to 50,12.5 to 25,6.2 to 12.5 µM,6.2 to 12.5,51 ± 7,54 ± 4,
"CCCCCC(=O)NCCCC[C@H]1NC(=O)[C@H](CCCCN)NC(=O)[C@H](CC(C)C)NC(=O)[C@H](CCCCN)NC(=O)[C@H](CCCCN)NC(=O)[C@H](CCC(N)=O)NC(=O)[C@H](CC(C)C)NC(=O)[C@H](CCCCN)NC(=O)[C@H](CCCCN)NC(=O)[C@H](Cc2ccccc2)NC1=O [BPC628, c(KKLKk(CO-nC5H11)FKKLQ)] (cyclo(FKKLQKKLK[dK](Hexanoyl)))",25 to 50,12.5 to 25,6.2 to 12.5 µM,6.2 to 12.5,19 ± 2,34 ± 3,
"CC(C)CCC(=O)NCCCC[C@H]1NC(=O)[C@H](CCCCN)NC(=O)[C@H](CC(C)C)NC(=O)[C@H](CCCCN)NC(=O)[C@H](CCCCN)NC(=O)[C@H](CCC(N)=O)NC(=O)[C@H](CC(C)C)NC(=O)[C@H](CCCCN)NC(=O)[C@H](CCCCN)NC(=O)[C@H](Cc2ccccc2)NC1=O [BPC630, c(KKLKk(CO-isoC5H11)FKKLQ)] (cyclo(FKKLQKKLK[dK](Pentanoyl(4-Me))))",25 to 50,6.2 to 12.5,6.2 to 12.5 µM,6.2 to 12.5,22 ± 2,28 ± 3,
"CCCCCC(=O)NCCCC[C@@H]1NC(=O)[C@H](CCCCN)NC(=O)[C@H](CC(C)C)NC(=O)[C@H](CCCCN)NC(=O)[C@H](CCCCN)NC(=O)[C@H](CCC(N)=O)NC(=O)[C@H](CC(C)C)NC(=O)[C@H](CCCCN)NC(=O)[C@H](CCCCN)NC(=O)[C@H](Cc2c[nH]cn2)NC1=O [BPC636, c(KKLKK(CO-nC5H11)HKKLQ)] (cyclo(HKKLQKKLKK(Hexanoyl)))",25 to 50,6.2 to 12.5,12.5 to 25 µM,6.2 to 12.5,5 ± 2,16 ± 5,
"CC(C)CCC(=O)NCCCC[C@@H]1NC(=O)[C@H](CCCCN)NC(=O)[C@H](CC(C)C)NC(=O)[C@H](CCCCN)NC(=O)[C@H](CCCCN)NC(=O)[C@H](CCC(N)=O)NC(=O)[C@H](CC(C)C)NC(=O)[C@H](CCCCN)NC(=O)[C@H](CCCCN)NC(=O)[C@H](Cc2c[nH]cn2)NC1=O [BPC638, c(KKLKK(CO-isoC5H11)HKKLQ)] (cyclo(HKKLQKKLKK(Pentanoyl(4-Me))))",25 to 50,6.2 to 12.5,25 to 50 µM,6.2 to 12.5,6 ± 2,8 ± 5,
"CCCCCCCC(=O)NCCCC[C@H]1NC(=O)[C@H](CCCCN)NC(=O)[C@H](CC(C)C)NC(=O)[C@H](CCCCN)NC(=O)[C@H](CCCCN)NC(=O)[C@H](CCC(N)=O)NC(=O)[C@H](CC(C)C)NC(=O)[C@H](CCCCN)NC(=O)[C@H](CCCCN)NC(=O)[C@H](Cc2ccccc2)NC1=O [BPC666, c(KKLKk(CO-C7H15)FKKLQ)] (cyclo(FKKLQKKLK[dK](Octanoyl)))",25 to 50,12.5 to 25,12.5 to 25 µM,6.2 to 12.5,61 ± 2,73 ± 3,
"CCCCCCCC(=O)NCCCC[C@@H]1NC(=O)[C@H](CCCCN)NC(=O)[C@H](CC(C)C)NC(=O)[C@H](CCCCN)NC(=O)[C@H](CCCCN)NC(=O)[C@H](CCC(N)=O)NC(=O)[C@H](CC(C)C)NC(=O)[C@H](CCCCN)NC(=O)[C@H](CCCCN)NC(=O)[C@@H](Cc2ccccc2)NC1=O [BPC668, c(KKLKK(CO-C7H15)fKKLQ)] (cyclo(KKLKK(Octanoyl)[dF]KKLQ))",25 to 50,12.5 to 25,6.2 to 12.5 µM,6.2 to 12.5,79 ± 2,79 ± 1,
"CCCCCCCC(=O)NCCCC[C@@H]1NC(=O)[C@H](CCCCN)NC(=O)[C@H](CC(C)C)NC(=O)[C@H](CCCCN)NC(=O)[C@H](CCCCN)NC(=O)[C@H](CCC(N)=O)NC(=O)[C@H](CC(C)C)NC(=O)[C@H](CCCCN)NC(=O)[C@H](CCCCN)NC(=O)[C@H](Cc2c[nH]cn2)NC1=O [BPC670, c(KKLKK(CO-C7H15)HKKLQ)] (cyclo(HKKLQKKLKK(Octanoyl)))",25 to 50,12.5 to 25,12.5 to 25 µM,3.1 to 6.2,34 ± 1,40 ± 1,
"CCCCCC(=O)N[C@@H](CCCCN)C(=O)N[C@@H](CC(C)C)C(=O)NCCCC[C@H]1NC(=O)[C@H](CCCCN)NC(=O)[C@H](CC(C)C)NC(=O)[C@H](CCCCN)NC(=O)[C@H](CCCCN)NC(=O)[C@H](CCC(N)=O)NC(=O)[C@H](CC(C)C)NC(=O)[C@H](CCCCN)NC(=O)[C@H](CCCCN)NC(=O)[C@H](Cc2ccccc2)NC1=O [BPC672, c(KKLKk(LK-CO-nC5H11)FKKLQ)] (cyclo(FKKLQKKLK[dK]([Leu-Lys-Hexanoyl])))",25 to 50,6.2 to 12.5,3.1 to 12.5 µM and 6.2 to 12.5 µM,3.1 to 6.2,33 ± 2,33 ± 2,3.1 to 6.2
"CCCCCC(=O)N[C@@H](CCCCN)C(=O)N[C@@H](CC(C)C)C(=O)NCCCC[C@@H]1NC(=O)[C@H](CCCCN)NC(=O)[C@H](CC(C)C)NC(=O)[C@H](CCCCN)NC(=O)[C@H](CCCCN)NC(=O)[C@H](CCC(N)=O)NC(=O)[C@H](CC(C)C)NC(=O)[C@H](CCCCN)NC(=O)[C@H](CCCCN)NC(=O)[C@@H](Cc2ccccc2)NC1=O [BPC674, c(KKLKK(LK-CO-nC5H11)fKKLQ)] (cyclo(KKLKK([Leu-Lys-Hexanoyl])[dF]KKLQ))",25 to 50,6.2 to 12.5,3.1 to 12.5 µM and 6.2 to 12.5 µM,3.1 to 6.2,51 ± 2,56 ± 2,3.1 to 6.2
CCCCCC(=O)NCCCC[C@H]1NC(=O)[C@H](CCCCN)NC(=O)[C@H](CCC(N)=O)NC(=O)[C@H](CC(C)C)NC(=O)[C@H](CCCCN)NC(=O)[C@H](CCCCN)NC(=O)[C@H](Cc2ccccc2)NC(=O)[C@H](CCCCN)NC(=O)[C@H](CCCCN)NC(=O)[C@H](CC(C)C)NC1=O [BPC678] (cyclo(FKKLQK[dK](Hexanoyl)LKK)),25 to 50,12.5 to 25,6.2 to 12.5 µM,3.1 to 6.2,68 ± 3,73 ± 4,
